In patent US12269827B1, “Substituted pyrazino[1′,2′:1,5]pyrazolo[4,3-c][1,6]naphthyridines as CK2 inhibitors” (KING FAISAL UNIVERSITY, priority 2023, dated 2025):

Assays:
[1] = target: T1, recombinant human CK2 (RRββ-holoenzyme) (Homo sapiens, UniProt P68400); experiment: CK2 Kinase Assay (33P-ATP, substrate peptide RRRDDDSDDD); assay type: biochemical; details: final ATP concentration 15 μM, 10 minutes at 30° C.; read-out: protein kinase CK2 IC50
T1 construct: purchased Millipore
Protocol: CK2 Kinase Assay was conducted using the protocol as described in Pierre F. et al; J. Med. Chem. 2011, 54, 635-654. The tested compounds in aqueous solution were added at a volume of 10 μL to a reaction mixture comprising 10 μL of assay dilution buffer (ADB; 20 mM MOPS, pH 7.2, 25 mM β-glycerol phosphate, 5 mM EGTA, 1 mM sodium orthovanadate, and 1 mM dithiothreitol), 10 μL of substrate peptide (RRRDDDSDDD, dissolved in ADB at a concentration of 1 mM), 10 μL of recombinant human CK2 (RRββ-holoenzyme, 25 ng dissolved in ADB; Millipore). Reactions were initiated by the addition of 10 μL of ATP solution (90% 75 mMMgCl2, 75 μM ATP (final ATP concentration:15 μM) dissolved in ADB; 10% [γ-33P] ATP (stock 1 mCi/100 μL; 3000 Ci/mmol (Perkin-Elmer) and maintained for 10 minutes at 30° C. The reactions were quenched with 100 μL of 0.75% phosphoric acid and then transferred to and filtered through a phosphor cellulose filter plate (Millipore). After washing each well five times with 0.75% phosphoric acid, the plate was dried under vacuum for 5 min and, following the addition of 15 μL of scintillation fluid to each well, the residual radioactivity was measured using a Wallac […]. The IC50 values were derived from eight concentrations of test inhibitors.

H1299 (lung) = experiment: In vitro cytotoxic activity MTT assay, H1299; assay type: cell-based; details: Homo sapiens, NCI-H1299; H1299 (lung) cells, exposed for 96 hours; read-out: Cytotoxicity activity IC50 (50% inhibition of cell proliferation)
Protocol: (§1) Compounds 1-16 were screened for their in vitro cytotoxic activity utilizing a 3-(4,5-dimethyl-thiazol-2-yl)-2,5-diphenyltetrazolium bromide (MTT) assay against selected cancer human cell lines consisting of PC3 (prostate), HCT116 (colon), A375 (melanoma), H1299 (lung), MIAPaCa-2 (pancreas), HL60 (leukemia), MCF7 (breast), MDA-MB-231 (breast) (T. Mosmann, J. Immunol. Meth., 1983, 65, 55-63). The cells were cultured at 37° C. in RMPI1640 medium supplemented with 10% fetal bovine serum, 50 IU/mL penicillin, and 50 µg/mL streptomycin in a 5% CO2 incubator. All cells were sub-cultured 3 times/week by trypsinisation. Viable cells were seeded and allowed to adhere for 12 hours before a test drug was added in 96-well plates at an initial density of 1.0×10^5 cells/mL. Tumor cell lines were separately exposed to various concentrations of the tested compounds followed by incubation at a temperature of 37° C. during 96 hours inside a medium of fresh RMPI 1640. Cells were subsequently incubated at 37° C. using MTT at 0.5 mg/mL during 4 hours. After removal of supernatant, formazan crystals were dissolved in isopropanol and the optical density was measured at 570 nm. CX-4945 was used as a positive control.

MDA-MB-231 (breast) = experiment: In vitro cytotoxic activity MTT assay, MDA-MB-231; assay type: cell-based; details: Homo sapiens; MDA-MB-231 (breast) cells, exposed for 96 hours; read-out: Cytotoxicity activity IC50 (50% inhibition of cell proliferation)
Protocol: as §1

HCT116 (colon) = experiment: In vitro cytotoxic activity MTT assay, HCT116; assay type: cell-based; details: Homo sapiens, HCT-116; HCT116 (colon) cells, exposed for 96 hours; read-out: Cytotoxicity activity IC50 (50% inhibition of cell proliferation)
Protocol: as §1

MIAPaCa-2 (pancreas) = experiment: In vitro cytotoxic activity MTT assay, MIAPaCa-2; assay type: cell-based; details: Homo sapiens, MIA PaCa-2; MIAPaCa-2 (pancreas) cells, exposed for 96 hours; read-out: Cytotoxicity activity IC50 (50% inhibition of cell proliferation)
Protocol: as §1

PC3 (prostate) = experiment: In vitro cytotoxic activity MTT assay, PC3; assay type: cell-based; details: Homo sapiens, Prostate cell; PC3 (prostate) cells, exposed for 96 hours; read-out: Cytotoxicity activity IC50 (50% inhibition of cell proliferation)
Protocol: as §1

MCF7 (breast) = experiment: In vitro cytotoxic activity MTT assay, MCF7; assay type: cell-based; details: Homo sapiens; MCF7 (breast) cells, exposed for 96 hours; read-out: Cytotoxicity activity IC50 (50% inhibition of cell proliferation)
Protocol: as §1

A375 (melanoma) = experiment: In vitro cytotoxic activity MTT assay, A375; assay type: cell-based; details: Homo sapiens, A-375; A375 (melanoma) cells, exposed for 96 hours; read-out: Cytotoxicity activity IC50 (50% inhibition of cell proliferation)
Protocol: as §1

HL60 (leukemia) = experiment: In vitro cytotoxic activity MTT assay, HL60; assay type: cell-based; details: Homo sapiens, HL-60; HL60 (leukemia) cells, exposed for 96 hours; read-out: Cytotoxicity activity IC50 (50% inhibition of cell proliferation)
Protocol: as §1

T1 sequence (P68400 whole entry): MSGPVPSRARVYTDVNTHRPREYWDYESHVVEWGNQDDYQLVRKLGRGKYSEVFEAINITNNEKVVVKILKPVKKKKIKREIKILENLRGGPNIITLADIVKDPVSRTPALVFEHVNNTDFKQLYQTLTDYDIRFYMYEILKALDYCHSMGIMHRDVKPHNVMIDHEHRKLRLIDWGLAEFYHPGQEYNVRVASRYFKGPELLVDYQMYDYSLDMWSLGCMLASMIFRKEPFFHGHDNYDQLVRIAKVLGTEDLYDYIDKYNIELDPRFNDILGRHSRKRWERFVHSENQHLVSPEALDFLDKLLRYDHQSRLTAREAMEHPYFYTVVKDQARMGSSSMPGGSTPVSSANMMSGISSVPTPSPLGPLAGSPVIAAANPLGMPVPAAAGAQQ
T1 sequence (P67870 whole entry partner): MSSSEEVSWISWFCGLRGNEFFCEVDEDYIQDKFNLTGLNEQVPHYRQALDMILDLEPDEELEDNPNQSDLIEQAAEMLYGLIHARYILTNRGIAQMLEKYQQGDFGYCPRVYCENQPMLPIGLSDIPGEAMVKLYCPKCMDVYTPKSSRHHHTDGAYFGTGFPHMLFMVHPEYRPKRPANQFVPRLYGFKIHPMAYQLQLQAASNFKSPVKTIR

Q: How did the IC50 [1] turn out when Clc1cccc(Nc2nc3ccncc3c3nn4ccncc4c23)c1 [Compound 1, N-(3-chlorophenyl)pyrazino[1′,2′:1,5]pyrazolo[4,3-c][1,6]naphthyridin-6-amine] was run?
A: 0.038 µM

Q: What about the IC50 (H1299 (lung)) of the same molecule?
A: 1.5 µM

Q: What about the IC50 (MDA-MB-231 (breast)) of the same molecule?
A: 4.6 µM

Q: And the IC50 (HCT116 (colon))?
A: 1.8 µM

Q: What about the IC50 (MIAPaCa-2 (pancreas)) of the same molecule?
A: 1.2 µM

Q: What about the IC50 (PC3 (prostate)) of the same molecule?
A: 1.3 µM

Q: And the IC50 (MCF7 (breast))?
A: 5.7 µM

Q: What about the IC50 (A375 (melanoma)) of the same molecule?
A: 3.7 µM

Q: What about the IC50 (HL60 (leukemia)) of the same molecule?
A: 4.4 µM
